# Key:
# [1] = tested on: T-Rex 293 cell line SC3 cells having increased expression of androgen receptor protein due to exposure to doxycycline; assay: Cellular growth inhibition, T-Rex 293 SC3 cells with doxycycline (androgen receptor induced), CellTiter-Glo; format: cell-based; conditions: T-Rex 293 SC3 cells with 10 ng/mL doxycycline (increased androgen receptor expression)
# Outline: (§1)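 SC3 is a T-Rex 293 clone stably transfected with wild-type androgen receptor in pcDNA4/TO, inducible by 10 ng/mL doxycycline. Cells were grown in phenol red-free DMEM with 10% charcoal-dextran FBS, with or without doxycycline, dosed 24 h after seeding (0.5% DMSO) for 72 h. Viability was read by CellTiter-Glo 2.0 luminescence and GI50 obtained from four-parameter fits.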
# [2] = tested on: T-Rex 293 cell line SC3 cells lacking increased expression of androgen receptor protein; assay: Cellular growth inhibition, T-Rex 293 SC3 cells without doxycycline, CellTiter-Glo; format: cell-based; conditions: T-Rex 293 SC3 cells not exposed to doxycycline, CellTiter-Glo 2.0
# Outline: as §1
# VCaP cells = assay: Cellular growth inhibition assay for VCaP cells, CellTiter-Glo; format: cell-based, human; conditions: Homo sapiens, VCaP, 72 h, 72 hours treatment, CellTiter-Glo 2.0
# Outline: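 GI50 values come from four-parameter curve fits of luminescence data normalized to a zero baseline. Compound, in medium with 0.5% DMSO, was added one day after plating and left for 72 h before CellTiter-Glo 2.0 addition.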
# T47D cells = assay: Cellular growth inhibition assay for T47D cells, CellTiter-Glo; format: cell-based, human; conditions: Homo sapiens, T47D, 72 h, 72 hours treatment, CellTiter-Glo 2.0 cell viability
# Outline: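 Cells are plated at 3000/well and allowed 24 h before treatment. Test compound in medium containing 0.5% DMSO is then added, with DMSO-only wells as negative control, and plates are incubated 72 h at 37 °C. ATP luminescence (CellTiter-Glo 2.0) is then fitted to four parameters to derive GI50.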
Compound,GI50 (VCaP cells) [nM],GI50 (T47D cells) [nM],GI50 ([1]; 72 h) [nM],GI50 ([2]; 72 h) [nM],GI50 ([1]; 72 hours) [nM],GI50 ([2]; 72 hours) [nM]
Cc1sc2c(c1C)C(c1ccc(N3CCC4(CC3)CCN(c3ncc(C(=O)N[C@H]5C(C)(C)[C@H](Oc6ccc(C#N)c(Cl)c6)C5(C)C)cn3)C4)cc1)=NC(Cc1ncco1)c1nnc(C)n1-2 (some centres unmarked) [Compound I-643],< 500,< 500,< 500,< 500,–,–
Cc1sc2c(c1C)C(c1ccc(N3CCC4(CC3)CCN(c3ncc(C(=O)N[C@H]5C(C)(C)[C@H](Oc6ccc(C#N)c(Cl)c6)C5(C)C)cn3)CC4)cc1)=N[C@@H](Cc1ncco1)c1nnc(C)n1-2 [Compound I-645],< 500,< 500,< 500,> 3000,–,–
Cc1sc2c(c1C)C(c1ccc(NC[C@@H]3CN(c4ncc(C(=O)N[C@H]5C(C)(C)[C@H](Oc6ccc(C#N)c(Cl)c6)C5(C)C)cn4)CCO3)cc1)=N[C@@H](Cc1ncco1)c1nnc(C)n1-2 [Compound I-646],< 500,< 500,< 500,< 500,–,–
Cc1sc2c(c1C)C(c1ccc(N3CCOC4(CCN(c5ncc(C(=O)N[C@H]6C(C)(C)[C@H](Oc7ccc(C#N)c(Cl)c7)C6(C)C)cn5)CC4)C3)cc1)=NC(Cc1ncco1)c1nnc(C)n1-2 (some centres unmarked) [Compound I-647],> 3000,< 500,< 500,> 3000,–,–
Cc1sc2c(c1C)C(c1ccc(N3CC[C@@H](CNc4ncc(C(=O)N[C@H]5C(C)(C)[C@H](Oc6ccc(C#N)c(Cl)c6)C5(C)C)cn4)C3)cc1)=NC(Cc1ncco1)c1nnc(C)n1-2 (some centres unmarked) [Compound I-648],< 500,< 500,< 500,< 500,–,–
Cc1sc2c(c1C)C(c1ccc(N[C@H]3CC[C@H](CNc4ncc(C(=O)N[C@H]5C(C)(C)[C@H](Oc6ccc(C#N)c(Cl)c6)C5(C)C)cn4)CC3)cc1)=N[C@@H](Cc1ncco1)c1nnc(C)n1-2 [Compound I-649],< 500,< 500,< 500,< 500,–,–
Cc1sc2c(c1C)C(c1ccc(N3CCCC(CN(C)c4ncc(C(=O)N[C@H]5C(C)(C)[C@H](Oc6ccc(C#N)c(Cl)c6)C5(C)C)cn4)C3)cc1)=N[C@@H](Cc1ncco1)c1nnc(C)n1-2 (some centres unmarked) [Compound I-650],500 to 1500,500 to 1500,< 500,> 3000,–,–
Cc1sc2c(c1C)C(c1ccc(N3CCN(C4CCN(c5ncc(C(=O)N[C@H]6C(C)(C)[C@H](Oc7ccc(C#N)c(Cl)c7)C6(C)C)cn5)CC4)CC3)cc1)=NC(Cc1ncco1)c1nnc(C)n1-2 (some centres unmarked) [Compound I-651],< 500,< 500,< 500,< 500,–,–
Cc1sc2c(c1C)C(c1ccc(N3C4CC(=O)CC3CN(c3ncc(C(=O)N[C@H]5C(C)(C)[C@H](Oc6ccc(C#N)c(Cl)c6)C5(C)C)cn3)C4)cc1)=NC(Cc1ncco1)c1nnc(C)n1-2 (some centres unmarked) [Compound I-654],< 500,< 500,–,–,< 500,< 500

# Further lines, with some results ahead:
GI50 (VCaP cells) [nM],GI50 (T47D cells) [nM],Compound,GI50 ([1]; 72 h) [nM],GI50 ([2]; 72 h) [nM],GI50 ([1]; 72 hours) [nM],GI50 ([2]; 72 hours) [nM]
< 500,< 500,Cc1sc2c(c1C)C(c1ccc(NCCC3CCCN(c4ncc(C(=O)N[C@H]5C(C)(C)[C@H](Oc6ccc(C#N)c(Cl)c6)C5(C)C)cn4)C3)cc1)=N[C@@H](Cc1ncco1)c1nnc(C)n1-2 (some centres unmarked) [Compound I-652],< 500,< 500,–,–
< 500,< 500,Cc1sc2c(c1C)C(c1ccc(N[C@@H]3CCC[C@H](Nc4ncc(C(=O)N[C@H]5C(C)(C)[C@H](Oc6ccc(C#N)c(Cl)c6)C5(C)C)cn4)C3)cc1)=NC(Cc1ncco1)c1nnc(C)n1-2 (some centres unmarked) [Compound I-653],< 500,< 500,–,–
1500 to 3000,500 to 1500,Cc1sc2c(c1C)C(c1ccc(N[C@H]3CCCCN(c4ncc(C(=O)N[C@H]5C(C)(C)[C@H](Oc6ccc(C#N)c(Cl)c6)C5(C)C)cn4)C3)cc1)=NC(Cc1ncco1)c1nnc(C)n1-2 (some centres unmarked) [Compound I-655],< 500,> 3000,–,–
< 500,< 500,Cc1sc2c(c1C)C(c1ccc(N3CC4(CCN(c5ncc(C(=O)N[C@H]6C(C)(C)[C@H](Oc7ccc(C#N)c(Cl)c7)C6(C)C)cn5)C4)C3)cc1)=NC(Cc1ncco1)c1nnc(C)n1-2 (some centres unmarked) [Compound I-656],< 500,500 to 1500,–,–
< 500,< 500,Cc1sc2c(c1C)C(c1ccc(N3C[C@@H]4[C@H](C3)[C@H]4Nc3ncc(C(=O)N[C@H]4C(C)(C)[C@H](Oc5ccc(C#N)c(Cl)c5)C4(C)C)cn3)cc1)=N[C@@H](Cc1ncco1)c1nnc(C)n1-2 [Compound I-657],< 500,< 500,–,–
< 500,< 500,"Cc1sc2c(c1C)C(c1ccc(C3CCC4(CC3)CCN(c3ncc(C(=O)N[C@H]5C(C)(C)[C@H](Oc6ccc(C#N)c(Cl)c6)C5(C)C)cn3)C4)cc1)=N[C@@H](Cc1ncco1)c1nnc(C)n1-2 [Compound I-671, N-[3-(3-chloro-4-cyano-phenoxy)-2,2,4,4-tetramethyl-cyclobutyl]-2-[8-[4-[(9S)-4,5,13-trimethyl-9-(oxazol-2-ylmethyl)-3-thia-1,8,11,12-tetrazatricyclo[8.3.0.02,6]trideca-2(6),4,7,10,12-pentaen-7-yl]phenyl]-2-azaspiro[4.5]decan-2-yl]pyrimidine-5-carboxamide]",< 500,< 500,–,–
< 500,< 500,"Cc1sc2c(c1C)C(c1ccc(OC3CC4(C3)CC3(CCN(c5ncc(C(=O)N[C@H]6C(C)(C)[C@H](Oc7ccc(C#N)c(Cl)c7)C6(C)C)c(Cl)n5)CC3)C4)cc1)=N[C@@H](Cc1ncco1)c1nnc(C)n1-2 [Compound I-672, 4-chloro-N-((1r,3r)-3-(3-chloro-4-cyanophenoxy)-2,2,4,4-tetramethylcyclobutyl)-2-(2-(4-((S)-2,3,9-trimethyl-6-(oxazol-2-ylmethyl)-6H-thieno[3,2-f][1,2,4]triazolo[4,3-a][1,4]diazepin-4-yl)phenoxy)-9-azadispiro[3.1.56.14]dodecan-9-yl)pyrimidine-5-carboxamide]",> 3000,> 3000,–,–
< 500,< 500,"Cc1nc(N2CCC3(CC2)CC2(CC(Oc4ccc(C5=N[C@@H](Cc6ncco6)c6nnc(C)n6-c6sc(C)c(C)c65)cc4)C2)C3)ncc1C(=O)N[C@H]1C(C)(C)[C@H](Oc2ccc(C#N)c(Cl)c2)C1(C)C [Compound I-673, N-[3-(3-chloro-4-cyano-phenoxy)-2,2,4,4-tetramethyl-cyclobutyl]-4-methyl-2-[2-[4-[(9S)-4,5,13-trimethyl-9-(oxazol-2-ylmethyl)-3-thia-1,8,11,12-tetrazatricyclo[8.3.0.02,6]trideca-2(6),4,7,10,12-pentaen-7-yl]phenoxy]-9-azadispiro [3.1.56.14]dodecan-9-yl]pyrimidine-5-carboxamide]",< 500,> 3000,–,–

# — US20260062422A1 (Halda Therapeutics OpCo, Inc., priority 2022, published 2026)
